Where “and” joins values, the source holds several entries; their conditions need not be identical. Identical values can stand only once.

Data set [1] is described as follows: Favipiravir plasma trough level monitoring in patients (UPLC-MS/MS). Format: in vivo, human. How it is done: Plasma was isolated from patient blood samples collected in EDTA. Frozen plasma samples were shipped to Laboratoire de Pharmacocinétique-Toxicologie, […] La Timone, Aix-Marseille Université, Marseille, France for favipiravir concentration analysis. The quantification of favipiravir in thawed plasma samples was performed by ultra-performance liquid chromatography coupled with tandem mass spectrometry (UPLC-MS/MS) method (UPLC-TQD, Waters, USA) with a lower limit of quantification of 0.5 μg/mL [34]. Validation of the assay was performed in accordance with the 2012 EMA guidelines and the ISO15189 guidelines. Model parameter estimation, model simulation properties (visual predictive check) and dose simulations were assessed using […]2 (2.0.6) and rxode2 (2.0.7) in R (4.2.0), as described elsewhere.

In data set [2] the test system is HuNoV. Kind of data set: Clinical response of immunocompromised patients with chronic HuNoV infection. Format: in vivo, human. How it is done:
The Drugs and Therapeutics Committees at Great Ormond Street Hospital for Children, Great North Children's Hospital and Royal Free London NHS Trust approved treatment with favipiravir +/− nitazoxanide in four immunocompromised patients with life-threatening/severe chronic HuNoV infections. After obtaining informed consent, microbiological and pharmacological monitoring was performed. Informed consent was also obtained for microbiological monitoring in 2 untreated patients with HuNoV infections. Residual diagnostic viral samples were released for whole-genome sequencing through the UCL/UCLH Pathogen Biobank National Research Ethics Service Committee London Fulham (reference: [12]/LO/1089). For P1 specifically, residual stool samples were released for in vivo infectivity evaluation in the zebrafish model with research ethics approval from London Bloomsbury Research Ethics Committee (reference: 07/Q0508/43). This allows the use of pseudonymised residual diagnostic samples for research. An additional stool sample positive for HuNoV from the existing collection of samples of the University Hospital of Leuven (Belgium) was used (reference: G-2021–4376). Informed consent was obtained from the patient. […]

Data set [3] relates to HuNoV. Kind of data set: HuNoV whole-genome sequencing of longitudinal patient stool samples. Also on record: species or system human. The source says:
Stool samples were collected from the patients. Full-length HuNoV genome sequences were obtained from samples using SureSelectXT target enrichment and Illumina sequencing. For each patient, a unique patient reference was generated by mapping the remaining reads of the first sample to the genotype reference from GenBank using bwa-mem. Reads from the subsequent samples of the same patient were mapped to this patient reference. Consensus sequences were aligned using MAFFT [58]. Only genomes with >80% genome coverage and a mean read depth of 100 or above were included in downstream analysis. Minority allele variants with a frequency of above 2% and a minimum of 2 supporting reads were identified at sites with a read depth of ≥5 using VarScan. For plotting polymorphism frequency, we have determined Watterson's theta which normalises for reading depth. Maximum likelihood phylogenies were constructed using RAxML [13], with the GTR model and 1000 bootstrap replicates. General data processing was carried out in R 3.6.1 using Rstudio 1.2. with the tidyverse family of packages (v1.2.1). Figures were made using the ggplot2 package.

Consider `NC(=O)c1nc(F)c[nH]c1=O` [favipiravir], for which the “Favipiravir plasma trough level” value in data set [1] (P1, 200 mg TDS (8-hourly, 51 mg/kg/day), average at month four) is 10.0 µg/mL; in data set [1] (P1, 400 mg TDS (8-hourly, 97 mg/kg/day)) it was 154 µg/mL and 154.0 µg/mL; in data set [1] (P4, 400 mg TDS (8-hourly, 67 mg/kg/day)) it was 159 µg/mL and 159.0 µg/mL. In the data set with HuNoV [2] (P3 (CID), favipiravir monotherapy), the Clinical response entry was “Weight gain, reduced stool output, improved enteral feeding”. Further, the “Patient weight after treatment” value in the data set on HuNoV [2] (P3, second course up to 12-hourly 800 mg, four months, from 28.9 kg) is on record as 33.3 kg. The “Favipiravir-associated viral sequence changes” value with HuNoV [3] (P1, P2 and P4, coinciding with periods of favipiravir treatment, reducing after cessation) is “accumulation of A to G and T to C sequence changes”; with HuNoV [3] (P3, six samples), “without evidence of accumulation of A to G and T to C favipiravir-associated sequence changes”.
